Each structure is given as a SMILES string.
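Note: fluorogenic LRSR-AMC substrate cleavage by MALT1, 50 min compound preincubation then 4 h reaction at RT, 11-point dilution from 30 µM, scaled between enzyme-free and untreated enzyme controls.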

This experiment deals with T1, full-length MALT1 protein (Strep-MALT1(1-824)-His) (Homo sapiens, UniProt Q9UDY8).
T1 sequence (Q9UDY8 1-824): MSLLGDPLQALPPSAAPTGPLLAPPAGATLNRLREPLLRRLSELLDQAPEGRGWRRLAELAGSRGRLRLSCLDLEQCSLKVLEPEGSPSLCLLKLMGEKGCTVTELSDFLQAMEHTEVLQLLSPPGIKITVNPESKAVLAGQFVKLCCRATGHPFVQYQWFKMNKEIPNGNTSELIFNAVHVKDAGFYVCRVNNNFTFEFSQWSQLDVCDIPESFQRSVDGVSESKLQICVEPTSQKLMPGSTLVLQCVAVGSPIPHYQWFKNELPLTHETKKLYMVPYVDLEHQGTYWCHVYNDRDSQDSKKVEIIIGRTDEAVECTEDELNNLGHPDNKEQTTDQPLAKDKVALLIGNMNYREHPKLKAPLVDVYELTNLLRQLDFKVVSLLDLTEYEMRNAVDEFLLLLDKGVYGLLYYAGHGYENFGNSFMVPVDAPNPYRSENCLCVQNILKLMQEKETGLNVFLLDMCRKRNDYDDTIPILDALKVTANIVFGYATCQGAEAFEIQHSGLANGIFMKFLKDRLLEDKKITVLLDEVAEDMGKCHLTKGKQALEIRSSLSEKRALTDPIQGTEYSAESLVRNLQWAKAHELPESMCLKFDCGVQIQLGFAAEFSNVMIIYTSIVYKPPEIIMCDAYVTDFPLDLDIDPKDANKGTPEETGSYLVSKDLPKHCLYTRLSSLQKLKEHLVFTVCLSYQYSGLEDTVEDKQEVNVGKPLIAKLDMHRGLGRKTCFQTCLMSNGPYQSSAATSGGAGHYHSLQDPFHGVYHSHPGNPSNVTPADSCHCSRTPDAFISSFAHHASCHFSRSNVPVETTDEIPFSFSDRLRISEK
As to the kind of experiment: biochemical.
By IC50 is commonly meant the concentration that inhibits the measured activity by half. Higher therefore signals weaker potency. In the case of `COc1nccc(-n2ncc(C(=O)Nc3cnc(-n4nccn4)c(C#N)c3)c2C(F)(F)F)c1C` [Cpd 38, N-(5-cyano-6-(2H-1,2,3-triazol-2-yl)pyridin-3-yl)-1-(2-methoxy-3-methylpyridin-4-yl)-5-(trifluoromethyl)-1H-pyrazole-4-carboxamide], the IC50 was determined as 324 nM. In the case of `N#Cc1cc(NC(=O)c2cnn(-c3ccnc(Cl)c3)c2C(F)(F)F)cnc1-n1nccn1` [Cpd 39, 1-(2-chloropyridin-4-yl)-N-(5-cyano-6-(2H-1,2,3-triazol-2-yl)pyridin-3-yl)-5-(trifluoromethyl)-1H-pyrazole-4-carboxamide], inhibition was half-maximal at 457 nM (IC50).

Turning to `N#Cc1cc(-n2ncc(C(=O)Nc3cnc(-n4nccn4)c(C#N)c3)c2C(F)(F)F)ccn1` [Cpd 40, N-(5-cyano-6-(2H-1,2,3-triazol-2-yl)pyridin-3-yl)-1-(2-cyanopyridin-4-yl)-5-(trifluoromethyl)-1H-pyrazole-4-carboxamide], the midpoint of inhibition, the IC50, lay at 1910 nM. The result for `COc1cc(-n2ncc(C(=O)Nc3cnc(-n4nccn4)c(C#N)c3)c2C(F)(F)F)ccn1` [Cpd 41, N-(5-Cyano-6-(2H-1,2,3-triazol-2-yl)pyridin-3-yl)-1-(2-methoxypyridin-4-yl)-5-(trifluoromethyl)-1H-pyrazole-4-carboxamide] reads 2040 nM; that for `Cc1nccc(-n2ncc(C(=O)Nc3cnc(-n4nccn4)c(C#N)c3)c2C(F)(F)F)c1C` [Cpd 42, N-(5-cyano-6-(2H-1,2,3-triazol-2-yl)pyridin-3-yl)-1-(2,3-dimethylpyridin-4-yl)-5-(trifluoromethyl)-1H-pyrazole-4-carboxamide], 182 nM; that for `N#Cc1cnccc1-n1ncc(C(=O)Nc2cnc(-n3nccn3)c(C#N)c2)c1C(F)(F)F` [Cpd 46, N-(5-cyano-6-(2H-1,2,3-triazol-2-yl)pyridin-3-yl)-1-(3-cyanopyridin-4-yl)-5-(trifluoromethyl)-1H-pyrazole-4-carboxamide], 479 nM. The result for `Cc1ccnc(-n2ncc(C(=O)Nc3cnc(-n4nccn4)c(C#N)c3)c2C(F)(F)F)c1Cl` [Cpd 47, 1-(3-chloro-4-methylpyridin-2-yl)-N-(5-cyano-6-(2H-1,2,3-triazol-2-yl)pyridin-3-yl)-5-(trifluoromethyl)-1H-pyrazole-4-carboxamide] reads 537 nM; that for `COc1ccnc(-n2ncc(C(=O)Nc3cnc(-n4nccn4)c(Cl)c3)c2C(F)(F)F)c1Cl` [Cpd 65, 1-(3-chloro-4-methoxypyridin-2-yl)-N-(5-chloro-6-(2H-1,2,3-triazol-2-yl)pyridin-3-yl)-5-(trifluoromethyl)-1H-pyrazole-4-carboxamide], 5750 nM; that for `COc1ccnc(-n2ncc(C(=O)Nc3cnc(-n4nccn4)c(C#N)c3)c2C(F)(F)F)c1Cl` [Cpd 66, 1-(3-chloro-4-methoxypyridin-2-yl)-N-(5-cyano-6-(2H-1,2,3-triazol-2-yl)pyridin-3-yl)-5-(trifluoromethyl)-1H-pyrazole-4-carboxamide], 3980 nM. The result for `O=C(Nc1cnc(-n2nccn2)c(Cl)c1)c1cnn(-c2c(Cl)cncc2Cl)c1C(F)(F)F` [Cpd 67, N-(5-chloro-6-(2H-1,2,3-triazol-2-yl)pyridin-3-yl)-1-(3,5-dichloropyridin-4-yl)-5-(trifluoromethyl)-1H-pyrazole-4-carboxamide] reads 525 nM; that for `Cc1c(F)ccc(-n2ncc(C(=O)Nc3cnc(-n4nccn4)c(Cl)c3)c2C(F)(F)F)c1Cl` [Cpd 71, 1-(2-chloro-4-fluoro-3-methylphenyl)-N-(5-chloro-6-(2H-1,2,3-triazol-2-yl)pyridin-3-yl)-5-(trifluoromethyl)-1H-pyrazole-4-carboxamide], 832 nM. As to `Cc1c(F)ccc(-n2ncc(C(=O)Nc3cnc(-n4nccn4)c(C#N)c3)c2C(F)(F)F)c1Cl` [Cpd 72, 1-(2-chloro-4-fluoro-3-methylphenyl)-N-(5-cyano-6-(2H-1,2,3-triazol-2-yl)pyridin-3-yl)-5-(trifluoromethyl)-1H-pyrazole-4-carboxamide], the midpoint of inhibition, the IC50, lay at 603 nM. The result for `CS(=O)(=O)c1cccc(-n2ncc(C(=O)Nc3cnc(-n4nccn4)c(Cl)c3)c2C(F)(F)F)c1` [Cpd 74, N-(5-chloro-6-(2H-1,2,3-triazol-2-yl)pyridin-3-yl)-1-(3-(methylsulfonyl)phenyl)-5-(trifluoromethyl)-1H-pyrazole-4-carboxamide] reads 2880 nM. In turn, `Cc1cc(S(C)(=O)=O)ccc1-n1ncc(C(=O)Nc2cnc(-n3nccn3)c(Cl)c2)c1C(F)(F)F` [Cpd 75, N-(5-chloro-6-(2H-1,2,3-triazol-2-yl)pyridin-3-yl)-1-(2-methyl-4-(methylsulfonyl)phenyl)-5-(trifluoromethyl)-1H-pyrazole-4-carboxamide] returned a 50% inhibitory concentration (IC50) of 1070 nM.

Regarding `CC(C)c1ccccc1-n1ncc(C(=O)Nc2cnc(-n3nccn3)c(Cl)c2)c1C(F)(F)F` [Cpd 76, N-(5-chloro-6-(2H-1,2,3-triazol-2-yl)pyridin-3-yl)-1-(2-isopropylphenyl)-5-(trifluoromethyl)-1H-pyrazole-4-carboxamide], the IC50 stood at 676 nM. Against the preceding molecule, the IC50 is about 1.6-fold lower. The result for `Cc1c(F)ccc(-n2ncc(C(=O)Nc3cnc(-n4nccn4)c(Cl)c3)c2C(F)(F)F)c1C` [Cpd 77, N-(5-chloro-6-(2H-1,2,3-triazol-2-yl)pyridin-3-yl)-1-(4-fluoro-2,3-dimethylphenyl)-5-(trifluoromethyl)-1H-pyrazole-4-carboxamide] reads 891 nM; that for `O=C(Nc1cnc(-n2nccn2)c(Cl)c1)c1cnn(-c2ccc(F)c(F)c2)c1C(F)(F)F` [Cpd 78, N-(5-chloro-6-(2H-1,2,3-triazol-2-yl)pyridin-3-yl)-1-(3,4-difluorophenyl)-5-(trifluoromethyl)-1H-pyrazole-4-carboxamide], 646 nM. The molecule `O=C(Nc1cnc(-n2nccn2)c(Cl)c1)c1cnn(-c2cc(F)ccc2Cl)c1C(F)(F)F` [Cpd 79, 1-(2-chloro-5-fluorophenyl)-N-(5-chloro-6-(2H-1,2,3-triazol-2-yl)pyridin-3-yl)-5-(trifluoromethyl)-1H-pyrazole-4-carboxamide] displayed an IC50 of 380 nM. This IC50 is about 1.7-fold lower than that of the molecule before. The result for `N#Cc1cc(NC(=O)c2cnn(-c3cc(F)ccc3Cl)c2C(F)(F)F)cnc1-n1nccn1` [Cpd 80, 1-(2-chloro-5-fluorophenyl)-N-(5-cyano-6-(2H-1,2,3-triazol-2-yl)pyridin-3-yl)-5-(trifluoromethyl)-1H-pyrazole-4-carboxamide] reads 209 nM. The result for `N#Cc1cc(-n2ncc(C(=O)Nc3cnc(-n4nccn4)c(Cl)c3)c2C(F)(F)F)ccc1F` [Cpd 85, N-(5-chloro-6-(2H-1,2,3-triazol-2-yl)pyridin-3-yl)-1-(3-cyano-4-fluorophenyl)-5-(trifluoromethyl)-1H-pyrazole-4-carboxamide] reads 2630 nM. The result for `N#Cc1cc(-n2ncc(C(=O)Nc3cnc(-n4nccn4)c(C#N)c3)c2C(F)(F)F)ccc1F` [Cpd 86, 1-(3-cyano-4-fluorophenyl)-N-(5-cyano-6-(2H-1,2,3-triazol-2-yl)pyridin-3-yl)-5-(trifluoromethyl)-1H-pyrazole-4-carboxamide] reads 1550 nM; that for `Cc1cc(F)ncc1-n1ncc(C(=O)Nc2cnc(-n3nccn3)c(Cl)c2)c1C(F)(F)F` [Cpd 87, N-(5-chloro-6-(2H-1,2,3-triazol-2-yl)pyridin-3-yl)-1-(6-fluoro-4-methylpyridin-3-yl)-5-(trifluoromethyl)-1H-pyrazole-4-carboxamide], 724 nM; that for `Cc1ncccc1-n1ncc(C(=O)Nc2cnc(-n3nccn3)c(C#N)c2)c1C(F)(F)F` [Cpd 88, N-(5-cyano-6-(2H-1,2,3-triazol-2-yl)pyridin-3-yl)-1-(2-methylpyridin-3-yl)-5-(trifluoromethyl)-1H-pyrazole-4-carboxamide], 794 nM. In the case of `O=C(Nc1cnc(-n2nccn2)c(Cl)c1)c1cnn(-c2ccc(F)c(F)c2F)c1C(F)(F)F` [Cpd 89, N-(5-chloro-6-(2H-1,2,3-triazol-2-yl)pyridin-3-yl)-5-(trifluoromethyl)-1-(2,3,4-trifluorophenyl)-1H-pyrazole-4-carboxamide], the midpoint of inhibition, the IC50, lay at 646 nM. This IC50 and that of the molecule before are within 1.5-fold of each other. The result for `O=C(Nc1cnc(-n2nccn2)c(Cl)c1)c1cnn(-c2c(F)cccc2Cl)c1C(F)(F)F` [Cpd 90, N-(5-chloro-6-(2H-1,2,3-triazol-2-yl)pyridin-3-yl)-1-(2-chloro-6-fluorophenyl)-5-(trifluoromethyl)-1H-pyrazole-4-carboxamide] reads 575 nM; that for `Cc1ccncc1-n1ncc(C(=O)Nc2cnc(-n3nccn3)c(C#N)c2)c1C(F)(F)F` [Cpd 91, N-(5-cyano-6-(2H-1,2,3-triazol-2-yl)pyridin-3-yl)-1-(4-methylpyridin-3-yl)-5-(trifluoromethyl)-1H-pyrazole-4-carboxamide], 513 nM. Molecule `Cc1cccc(F)c1-n1ncc(C(=O)Nc2cnc(-n3nccn3)c(Cl)c2)c1C(F)(F)F` [Cpd 92, N-(5-chloro-6-(2H-1,2,3-triazol-2-yl)pyridin-3-yl)-1-(2-fluoro-6-methylphenyl)-5-(trifluoromethyl)-1H-pyrazole-4-carboxamide] displayed an IC50 of 501 nM.

The record behind these values is patent publication US11040031B2, “Pyrazole derivatives as MALT1 inhibitors” (Janssen Pharmaceutica NV, priority 2018, dated 2021).
